From the CheMixHub viscosity set

Test: xn = mol fraction of the nth substance listed

CCCCCCCCC + CCCCCC
298.15 K, 101.33 kPa
Conditions | viscosity [mPa·s]
x2 = 0.1073 | 0.6111
x2 = 0.21 | 0.5693
x2 = 0.2873 | 0.5367
x2 = 0.4024 | 0.5017
x2 = 0.5044 | 0.4527
x2 = 0.6074 | 0.42
x2 = 0.7035 | 0.3874
x2 = 0.804 | 0.3547
x2 = 0.9035 | 0.3272

CCCCCCn1cc[n+](C)c1.[Br-] + O
303.15 K, 101 kPa
Conditions | viscosity [mPa·s]
x2 = 0.2196 | 695.5
x2 = 0.2978 | 395.5

CCCCCCCC/C=C\CCCCCCCC(=O)OCC(COC(=O)CCCCCCC/C=C\CCCCCCCC)OC(=O)CCCCCCC/C=C\CCCCCCCC + Cc1ccc(C)cc1
viscosity [mPa·s], 101.33 kPa
Conditions | 293.15 K | 298.15 K | 303.15 K | 308.15 K | 313.15 K
x1 = 0.000755 | 0.6573 | 0.6175 | 0.5813 | 0.5465 | 0.5168
x1 = 0.001496 | 0.6699 | 0.6292 | 0.5923 | 0.5567 | 0.5261
x1 = 0.004118 | 0.7209 | 0.6762 | 0.6359 | 0.5968 | 0.5636
x1 = 0.007318 | 0.7825 | 0.7329 | 0.6883 | 0.6454 | 0.609
x1 = 0.01139 | 0.8597 | 0.8042 | 0.7541 | 0.706 | 0.665
x1 = 0.01526 | 0.9594 | 0.8955 | 0.8379 | 0.7833 | 0.7368
x1 = 0.02469 | 1.185 | 1.101 | 1.027 | 0.9558 | 0.8959
x1 = 0.02908 | 1.291 | 1.197 | 1.115 | 1.037 | 0.9704
x1 = 0.03513 | 1.421 | 1.316 | 1.222 | 1.134 | 1.06
x1 = 0.04678 | 1.777 | 1.637 | 1.513 | 1.399 | 1.302
x1 = 0.06075 | 2.241 | 2.061 | 1.885 | 1.733 | 1.605

CCCCCCCC/C=C\CCCCCCCC(=O)OCC(COC(=O)CCCCCCC/C=C\CCCCCCCC)OC(=O)CCCCCCC/C=C\CCCCCCCC + CCCCCCCC
viscosity [mPa·s], 101.33 kPa
Conditions | x1 = 0.000908 | x1 = 0.001916 | x1 = 0.004907 | x1 = 0.0101 | x1 = 0.02609 | x1 = 0.03555 | x1 = 0.05997 | x1 = 0.08297
293.15 K | 0.5531 | 0.5668 | 0.6068 | 0.6753 | 0.9348 | 1.11 | 1.638 | 2.268
298.15 K | 0.5204 | 0.5329 | 0.5699 | 0.6331 | 0.8701 | 1.03 | 1.505 | 2.064
303.15 K | 0.4903 | 0.502 | 0.536 | 0.5947 | 0.8126 | 0.9579 | 1.388 | 1.894
308.15 K | 0.4628 | 0.4737 | 0.5055 | 0.5596 | 0.7605 | 0.8936 | 1.284 | 1.741
313.15 K | 0.4377 | 0.4478 | 0.4774 | 0.5277 | 0.7134 | 0.8357 | 1.191 | 1.606
